Experimental data published in patent US20110124586A1, “EXTERNAL PREPARATION FOR SKIN, AND WRINKLE-REPAIRING AGENT” (Kao Corporation, priority 2008, published 2011).

Legend:
photoaged skin = assay: Wrinkle reduction test on photoaged skin of hairless mice (UVA/UVB irradiation); assay type: in vivo; settings: photoaged hairless mouse skin
Description: A wrinkle-reducing effect in the case of applying a sample containing a base alone or lauryl thiogalactoside (compound of Production Example 2) to photoaged skin was examined by the following test methods.
Ten hairless mice, which were 10 weeks old at the start of the test, were used for each group.
Photoaging was induced by irradiation with UVA and UVB once a day, five times a week for 8 weeks. An irradiation dose was increased every week from 20 J/cm^2 to 25 J/cm^2 and to 30 J/cm^2 for UVA, from 20 mJ/cm^2 to 30 mJ/cm^2 and to 40 mJ/cm^2 for UVB, and the maximum dose was irradiated in Week 3 or later.
A wrinkle-reducing effect was evaluated by a wrinkle score and an epidermal thickness. The wrinkle score was determined in accordance with the method of Bissett et al. (Photochem. Photobiol. 46: 367-378, 1987). In other words, the size and depth of wrinkles were comprehensively evaluated with naked eyes and scored with the following four grades: 3, “large and deep wrinkles can be confirmed”; 2, “wrinkles can be confirmed”; 1, “no wrinkles can be confirmed”; and 0, “normal skin texture can be observed”. […]
A sample containing lauryl thiogalactoside in an amount of 1% in a 50 vol % ethanol aqueous solution (base) was prepared (Example 1). […] Subsequently, after the completion of the application, the wrinkle score was determined. […]

[1] = Moisture retention test (rate of decrease in water content of solution); assay type: physicochemical; settings: 10 mass % in ion exchanged water; silica gel desiccator 25° C., RH 20%; vs water alone; FIG. 1
Method: In accordance with the following test method, the rate of decrease in water content of lauryl thiogalactoside (compound of Production Example 2) solution was calculated to evaluate moisture-retaining property.
0.5 g of a sample prepared by adjusting a concentration of lauryl thiogalactoside to 10 mass % with ion exchanged water was weighed in a container made of a resin to measure an initial weight (W0).
Next, the sample was left to stand still in a silica gel desiccator (RT; 25° C., RH; 20%) to measure a time-dependent weight (Wt) of the sample.
After the completion of the test, the sample was dried in a dryer (50° C.) for 2 hours and then left to stand still in a silica gel desiccator for 2 hours to measure a dry weight (Ws).
The same operation was conducted for a control sample prepared using water alone, and the rate of decrease in water content was calculated with the following equation.
Rate of decrease in water content (%)=Ht/H0×100(Ht=Wt−Ws, H0=W0−Ws)

## CCCCCCCCCCCCSC1OC(CO)C(O)C(O)C1O (stereo not shown) [lauryl thiogalactoside]
Photoaged skin
  Effect on epidermal thickening (in words): had an effect of alleviating the epidermal thickening owing to photoaging
  Effect on wrinkles / wrinkle score (in words): effective for wrinkles induced by photoaging
Ordinary safety test
  Result in an ordinary safety test: does not have any problem in an ordinary safety test
[1]
  Moisture-retaining property (rate of decrease in water content): did not suppress water volatilization in a dry state and exhibited an insufficient moisture-retaining action
